Measurements as given in patent publication US20060058286A1, “Methods of treating HIV infection” (priority 2004, published 2006).

Legend:
HIV-1 NL4-3 [1] = assay: microbe, parasite or virus in culture; conditions: Human immunodeficiency virus 1, NL43, MT2, 120 h
Procedure: (§1) Virus and cell lines. The T-cell line, MT-2 was obtained through the AIDS Research and Reference Reagent Program, NIAID and was contributed by Dr. D. Richman. The cell line was cultured in RPMI 1640 medium supplemented with 10% fetal bovine serum, 2 mM L-glutamine and sub-cultured twice a week. The NL4-3 strain of HIV-1 was obtained from the AIDS Research and Reference Reagent Program. Both virus stocks were amplified and titered in MT-2 cells using a virus infectivity assay.
(§2) Drug Susceptibility and Cytotoxicity Assays. For drug susceptibility assays, MT-2 cells were infected with HIV-1 NL4-3 at an MOI of 0.001, and seeded into 96-well microtiter plates (2.5×10^5 cells/ml) containing serial dilutions of test compounds. […] Each drug ratio consisted of an array of 3-fold serial dilutions, and was performed in quadruplicate. The plates were incubated at 37° C./5% CO2. The MT-2 cells infected with HIV-1 NL4-3 were incubated for 5 days. On day-five post-infection, 20 μl from each well was harvested and quantitated by a reverse transcriptase (RT) assay or an MTS assay. Cytotoxicity assays were performed using uninfected cells, exposed to the same drug combinations, and incubated for five days. Cell viability was determined by an XTT assay. The CC50 values were calculated by using the exponential form of the median effect equation as mentioned below for calculation of EC50.
(§3) In this equation, Fa stands for “fraction affected,” and represents the fraction of the viral load that has been inactivated.
In carrying out the combination experiments below, the EC50 for Compound 1 and each comparator compound was determined during the course of each study, and used in the subsequent data analysis.

HIV-1 NL4-3 [2] = assay: Two-drug combination study with Compound 1 (combination indices); type: cell-based; conditions: for Combination Indices at 50% HIV Inhibition (Confidence Interval) / Combination Indices at 75% HIV Inhibition (Confidence Interval) / Combination Indices at 90% HIV Inhibition (Confidence Interval): 95% CI in parentheses; for Overall Result: overall antiviral effect of the two-drug combination with Compound 1, all ratios and effective levels
Procedure: as §1, §2
Analysis of Drug Combination Effects. For determination of CI values, drugs were diluted in a fixed ratio and multiple ratios were analyzed. The drug serial dilutions spanned a range of concentrations near the EC50 value of each compound, so that equivalent antiviral activities could be compared. Concentration-response curves were estimated for each individual drug and every combination using the median-effect equation. The equation was fit using a nonlinear regression routine (Proc Nlin) in PC SAS version 8.01 (SAS Institute Inc., SAS Version 8.01, Cary, N.C.: SAS Institute Inc., 1990).
as §3
To assess antiviral effects of different drug combination treatments, combination indices (CIs) were calculated according to Chou and Rideout. The combination index was computed as CI=[D]1/[Dm]1+[D]2/[Dm]2
In this equation [Dm]1 and [Dm]2 are the concentrations of drugs that would individually produce a specific level of effect, while [D]1 and [D]2 are the concentrations of drugs in combination that would produce the same level of effect.
Theoretically, additivity is implied if the CI is equal to one, synergy if the CI is less than one, and antagonism if the CI is greater than one. […] At best, we can construct a range that contains the likely values for the CI, given the noise in the data. In this report, these ranges are reported in parentheses next to each point estimate of the CI. […] If the range fell entirely above 1.0, we would infer antagonistic behavior. If the range were to include 1.0, we would infer additivity.

[3] = combination with Compound 1, EC50 ratio 1:1 (Compound 1:comparator)
[4] = combination with Compound 1, EC50 ratio 1:2.5 (Compound 1:comparator)
[5] = combination with Compound 1, EC50 ratio 2.5:1 (Compound 1:comparator)

EC50 (HIV-1 NL4-3 [1])	Compound	Combination Indices at 50% HIV Inhibition (Confidence Interval) (HIV-1 NL4-3 [2]; [3])	Combination Indices at 75% HIV Inhibition (Confidence Interval) (HIV-1 NL4-3 [2]; [3])	Combination Indices at 90% HIV Inhibition (Confidence Interval) (HIV-1 NL4-3 [2]; [3])	Combination Indices at 50% HIV Inhibition (Confidence Interval) (HIV-1 NL4-3 [2]; [4])	Combination Indices at 75% HIV Inhibition (Confidence Interval) (HIV-1 NL4-3 [2]; [4])	Combination Indices at 90% HIV Inhibition (Confidence Interval) (HIV-1 NL4-3 [2]; [4])	Combination Indices at 50% HIV Inhibition (Confidence Interval) (HIV-1 NL4-3 [2]; [5])	Combination Indices at 75% HIV Inhibition (Confidence Interval) (HIV-1 NL4-3 [2]; [5])	Combination Indices at 90% HIV Inhibition (Confidence Interval) (HIV-1 NL4-3 [2]; [5])	Overall Result (HIV-1 NL4-3 [2])	other results
8 nM	Cc1c(O)cccc1C(=O)N[C@@H](CSc1ccccc1)[C@H](O)CN1C[C@H]2CCCC[C@H]2C[C@H]1C(=O)NC(C)(C)C [Nelfinavir, nelfinavir]	0.55 (0.45, 0.65)	0.57 (0.42, 0.71)	0.59 (0.35, 0.83)	0.41 (0.34, 0.49)	0.50 (0.38, 0.63)	0.62 (0.36, 0.87)	0.82 (0.65, 0.99)	0.84 (0.60, 1.08)	0.87 (0.47, 1.27)	Moderately	combination effect at the 5:1 and 2:1 molar ratios (HIV-1 NL4-3 [2]; combination with Compound 1, all effective levels): synergy; combination effect at the 12.5:1 molar ratio (HIV-1 NL4-3 [2]; combination with Compound 1, only at the 75% and 90% effective levels): bias toward additivity; Overall Result (HIV-1 NL4-3 [2]; listed as nelfinavir): moderately synergistic
270 nM	O=c1[nH]cnc2c1ncn2[C@H]1CC[C@@H](CO)O1 [Didanosine, didanosine]	0.20 (0.14, 0.25)	0.27 (0.17, 0.37)	0.40 (0.16, 0.64)	0.16 (0.12, 0.20)	0.21 (0.14, 0.28)	0.31 (0.13, 0.49)	0.31 (0.27, 0.36)	0.32 (0.26, 0.39)	0.35 (0.23, 0.47)	Synergistic	Overall Result (HIV-1 NL4-3 [2]; listed as didanosine): synergistic
2 nM	Cc1cn([C@H]2C[C@H](N=[N+]=[N-])[C@@H](CO)O2)c(=O)[nH]c1=O [Zidovudine, zidovudine]	0.21 (0.16, 0.26)	0.15 (0.10, 0.20)	0.12 (0.06, 0.18)	0.33 (0.26, 0.40)	0.23 (0.16, 0.29)	0.16 (0.09, 0.24)	0.21 (0.18, 0.24)	0.16 (0.12, 0.19)	0.13 (0.08, 0.17)	Synergistic	Overall Result (HIV-1 NL4-3 [2]; listed as zidovudine): synergistic
42 nM	CC(C)CN(C[C@@H](O)[C@H](Cc1ccccc1)NC(=O)O[C@H]1CCOC1)S(=O)(=O)c1ccc(N)cc1 [Amprenavir, amprenavir]	0.37 (0.24, 0.49)	0.53 (0.28, 0.78)	0.95 (0.24, 1.67)	0.37 (0.27, 0.48)	0.56 (0.33, 0.78)	1.05 (0.38, 1.71)	1.17 (0.91, 1.43)	0.87 (0.60, 1.13)	0.74 (0.38, 1.10)	Additive-	Overall Result (HIV-1 NL4-3 [2]; listed as amprenavir): additive to synergistic
50 nM	CC(C)Nc1cccnc1N1CCN(C(=O)c2cc3cc(NS(C)(=O)=O)ccc3[nH]2)CC1 [Delavirdine, delavirdine]	0.64 (0.50, 0.78)	0.59 (0.41, 0.78)	0.58 (0.30, 0.85)	0.56 (0.47, 0.64)	0.41 (0.32, 0.50)	0.31 (0.20, 0.41)	0.52 (0.44, 0.60)	0.44 (0.34, 0.54)	0.39 (0.26, 0.53)	Synergistic	Overall Result (HIV-1 NL4-3 [2]; listed as delavirdine): strong synergistic effects
14 nM	Cc1cccc(C)c1OCC(=O)N[C@@H](Cc1ccccc1)[C@@H](O)C[C@H](Cc1ccccc1)NC(=O)[C@H](C(C)C)N1CCCNC1=O [Lopinavir, lopinavir]	0.16 (0.11, 0.22)	0.16 (0.08, 0.24)	0.16 (0.04, 0.28)		0.57 (0.46 0.68)	0.32 (0.22, 0.42)	1.60 (1.28, 1.92)	0.78 (0.56, 1.00)	0.38 (0.22, 0.55)	Additive-	Overall Result (HIV-1 NL4-3 [2]; listed as lopinavir): additive to synergistic
6 nM	CC(C)(C)NC(=O)[C@@H]1CN(Cc2cccnc2)CCN1C[C@@H](O)C[C@@H](Cc1ccccc1)C(=O)N[C@H]1c2ccccc2C[C@H]1O [Indinavir, indinavir]	0.64 (0.42, 0.85)	1.17 (0.63, 1.71)	2.15 (0.53, 3.78)	0.92 (0.68, 1.16)	1.07 (0.68, 1.46)	1.24 (0.51, 1.97)	0.41 (0.29, 0.53)	0.70 (0.42, 0.97)	1.19 (0.40, 1.97)	Additive-	Overall Result (HIV-1 NL4-3 [2]; listed as indinavir): additive to synergistic

Compound	EC50 (HIV-1 NL4-3 [1])	Combination Indices at 50% HIV Inhibition (Confidence Interval) (HIV-1 NL4-3 [2]; [3])	Combination Indices at 75% HIV Inhibition (Confidence Interval) (HIV-1 NL4-3 [2]; [3])	Combination Indices at 90% HIV Inhibition (Confidence Interval) (HIV-1 NL4-3 [2]; [3])	Combination Indices at 50% HIV Inhibition (Confidence Interval) (HIV-1 NL4-3 [2]; [4])	Combination Indices at 75% HIV Inhibition (Confidence Interval) (HIV-1 NL4-3 [2]; [4])	Combination Indices at 90% HIV Inhibition (Confidence Interval) (HIV-1 NL4-3 [2]; [4])	Combination Indices at 50% HIV Inhibition (Confidence Interval) (HIV-1 NL4-3 [2]; [5])	Combination Indices at 75% HIV Inhibition (Confidence Interval) (HIV-1 NL4-3 [2]; [5])	Combination Indices at 90% HIV Inhibition (Confidence Interval) (HIV-1 NL4-3 [2]; [5])	Overall Result (HIV-1 NL4-3 [2])	other results
COc1ncc(OC)c2c(C(=O)C(=O)N3CCN(C(=O)c4ccccc4)CC3)c[nH]c12 [Compound 3]	1 nM	0.92 (0.77, 1.06)	0.90 (0.70, 1.10)	0.89 (0.58, 1.21)	0.71 (0.60, 0.82)	0.66 (0.51, 0.80)	0.61 (0.40, 0.82)	0.41 (0.36, 0.47)	0.41 (0.33, 0.48)	0.40 (0.28, 0.52)	synergistic to additive	combination effect at the 13:1 and 82.5:1 molar ratios (HIV-1 NL4-3 [2]; combination with Compound 1): moderate synergy; combination effect at the 33:1 molar ratio (HIV-1 NL4-3 [2]; combination with Compound 1): additivity
Nc1nc(NC2CC2)c2ncn([C@H]3C=C[C@@H](CO)C3)c2n1 [Abacavir, abacavir]	740 nM	0.66 (0.48, 0.84)	0.89 (0.55, 1.91)	1.20 (0.48, 1.91)	0.58 (0.45, 0.71)	0.92 (0.62, 1.21)	1.46 (0.72, 2.20)	0.65 (0.44, 0.86)	0.88 (0.49, 1.28)	1.20 (0.36, 2.05)	Additive	combination effect at the 50% effective level (HIV-1 NL4-3 [2]; combination with Compound 1): synergy; combination effect at the 75% and 90% effective levels (HIV-1 NL4-3 [2]; combination with Compound 1): additivity
